From US11000033B2, “Ketone or oxime compound, and herbicide” (NISSAN CHEMICAL CORPORATION, priority 2014, dated 2021)

What was measured:
Format in all cases: in vivo
[1] = tested on: Abutilon theophrasti; assay: Test Example 5: herbicidal effect by foliage application, plastic box (symbol M); details: 320 g/ha, 3 weeks after application
Summary of the method: (§1)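 Leaf-applied emulsion, water-diluted to a preset herbicide dose, on two-week-old seedlings raised in a 25° C. to 30° C. greenhouse; injury rated at 3 weeks using earlier criteria.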

[2] = tested on: Abutilon theophrasti; assay: Test Example 4: herbicidal effect by soil treatment (symbol M); details: application herbicide amount 320 g/ha
Summary of the method: (§2)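 Seeds were sown in sterilized diluvial soil, covered with about 1.5 cm of soil, and the soil surface was sprayed with a water-diluted emulsion of the compound at a predetermined rate. Plants grew in a greenhouse at 25° C. to 30° C.; effects were scored visually 3 weeks after application.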

[3] = tested on: beet; assay: Test Example 5: effect on crop by foliage application, plastic box (symbol f); details: 320 g/ha, 3 weeks after application
Summary of the method: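 Foliage-application test plants come from spot sowing in sterilized diluvial soil under a soil layer of about 1.5 cm, grown at 25° C. to 30° C. in a greenhouse.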

[4] = tested on: Leptochloa chinensis; assay: Test Example 3: herbicidal effect by foliage application, Wagner pot (symbol D); details: application herbicide amount 320 g/ha
Summary of the method: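 In a shallow-flooded alluvial soil system held at 25–30 °C, plants including rice grew for 14 days and were then sprayed over the foliage with emulsion diluted to a fixed herbicide amount. Visual rating followed at 3 weeks.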

[5] = tested on: transplanted rice plant; assay: Test Example 1: effect on crop, application before weed generation in submerged conditions (symbol a); details: application herbicide amount 320 g/ha
Summary of the method: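 Rice at 2.5 leaf stage transplanted into submerged soil (4 cm depth) sown with three weed species; herbicide applied before weed emergence.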

[6] = tested on: Echinochloa oryzacola Vasing.; assay: Test Example 2: herbicidal activity, application during weed generation in submerged conditions (symbol A); details: Table 23; application herbicide amount 320 g/ha; grade 0-5 by criteria of Test Example 1
Summary of the method: (§3)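 Compound was applied as a water-diluted emulsion into the standing water of flooded pots (4 cm) once co-sown weeds reached one to two leaves. Greenhouse temperature was 25° C. to 30° C., soil was alluvial, and each species was rated visually after 3 weeks.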

[7] = tested on: Scirpus juncoides; assay: Test Example 2: herbicidal activity, application during weed generation in submerged conditions (symbol B); details: Table 23; application herbicide amount 320 g/ha; grade 0-5 by criteria of Test Example 1
Summary of the method: as §3

[8] = tested on: Setaria viridis; assay: Test Example 5: herbicidal effect by foliage application, plastic box (symbol G); details: 320 g/ha, 3 weeks after application
Summary of the method: as §1

[9] = tested on: soybean; assay: Test Example 4: effect on crop by soil treatment (symbol d); details: application herbicide amount 320 g/ha
Summary of the method: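 Diluvial soil (sterilized) in boxes; seeds placed spot-wise alongside weed species; ~1.5 cm covering soil. Greenhouse, 25–30° C.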

[10] = tested on: Avena fatua; assay: Test Example 4: herbicidal effect by soil treatment (symbol I); details: application herbicide amount 320 g/ha
Summary of the method: as §2

[11] = tested on: Lolium multiflorum Lam.; assay: Test Example 5: herbicidal effect by foliage application, plastic box (symbol K); details: 320 g/ha, 3 weeks after application
Summary of the method: as §1

Row | Compound | M: Abutilon theophrasti, herbicidal effect grade [1] | M (Abutilon theophrasti) herbicidal effect grade [2] | f: beet, effect on crop grade [3] | herbicidal effect on D (Leptochloa chinensis), grade 0-5 [4] | Effect grade on crop, a: transplanted rice plant [5] | Herbicidal effect grade, A: Echinochloa oryzacola Vasing. [6] | Herbicidal effect grade, B: Scirpus juncoides [7] | G: Setaria viridis, herbicidal effect grade [8] | d (soybean) effect on crop grade [9] | I (Avena fatua) herbicidal effect grade [10] | K: Lolium multiflorum Lam., herbicidal effect grade [11] | M: Abutilon theophrasti, herbicidal effect (criteria 0-5) [1] | G: Setaria viridis, herbicidal effect (criteria 0-5) [8] | K: Lolium multiflorum Lam., herbicidal effect (criteria 0-5) [11]
1 | COCCON=C(C)CC1CC(O)=C(c2c(C)cc(C)cc2C)C1=O (stereo not drawn) [1-041] | 4 (Herbicidal ratio of 70% or higher and lower than 90%) | 3 (Herbicidal ratio of 40% or higher and lower than 70%) | 1 (Herbicidal ratio of 5% or higher and lower than 20%) | 5 (Herbicidal ratio of 90% or more (almost completely withered)) | 5 (Herbicidal ratio of 90% or more (almost completely withered)) | 5 (Herbicidal ratio of 90% or more (almost completely withered)) | 0 (Herbicidal ratio of 5% or lower (almost no effect)) | 5 (Herbicidal ratio of 90% or more (almost completely withered)) | 1 (Herbicidal ratio of 5% or higher and lower than 20%) | 5 (Herbicidal ratio of 90% or more (almost completely withered)) | 5 (Herbicidal ratio of 90% or more (almost completely withered)) |  |  | 
2 | CON=C(C)CC1CC(OC(=O)COc2ccccc2[N+](=O)[O-])=C(c2c(C)cc(C)cc2C)C1=O (stereo not drawn) [1-071] | 4 (Herbicidal ratio of 70% or higher and lower than 90%) | 4 (Herbicidal ratio of 70% or higher and lower than 90%) | 0 (Herbicidal ratio of 5% or lower (almost no effect)) | 5 (Herbicidal ratio of 90% or more (almost completely withered)) | 5 (Herbicidal ratio of 90% or more (almost completely withered)) | 5 (Herbicidal ratio of 90% or more (almost completely withered)) | 3 (Herbicidal ratio of 40% or higher and lower than 70%) | 5 (Herbicidal ratio of 90% or more (almost completely withered)) | 0 (Herbicidal ratio of 5% or lower (almost no effect)) | 4 (Herbicidal ratio of 70% or higher and lower than 90%) | 3 (Herbicidal ratio of 40% or higher and lower than 70%) |  |  | 
3 | CON=CC(C)(C)C1CC(O)=C(c2c(C)cc(C)cc2C)C1=O (stereo not drawn) [1-030] | 0 (Herbicidal ratio of 5% or lower (almost no effect)) | 0 (Herbicidal ratio of 5% or lower (almost no effect)) | 0 (Herbicidal ratio of 5% or lower (almost no effect)) | 5 (Herbicidal ratio of 90% or more (almost completely withered)) | 1 (Herbicidal ratio of 5% or higher and lower than 20%) | 2 (Herbicidal ratio of 20% or higher and lower than 40%) | 0 (Herbicidal ratio of 5% or lower (almost no effect)) | 5 (Herbicidal ratio of 90% or more (almost completely withered)) | 0 (Herbicidal ratio of 5% or lower (almost no effect)) | 0 (Herbicidal ratio of 5% or lower (almost no effect)) | 5 (Herbicidal ratio of 90% or more (almost completely withered)) |  |  | 
4 | CC(CC1CC(O)=C(c2c(C)cc(C)cc2C)C1=O)=NOCc1ccccc1F (stereo not drawn) [1-026] | 0 (Herbicidal ratio of 5% or lower (almost no effect)) | 0 (Herbicidal ratio of 5% or lower (almost no effect)) |  | 5 (Herbicidal ratio of 90% or more (almost completely withered)) | 5 (Herbicidal ratio of 90% or more (almost completely withered)) | 5 (Herbicidal ratio of 90% or more (almost completely withered)) | 3 (Herbicidal ratio of 40% or higher and lower than 70%) | 5 (Herbicidal ratio of 90% or more (almost completely withered)) | 0 (Herbicidal ratio of 5% or lower (almost no effect)) | 3 (Herbicidal ratio of 40% or higher and lower than 70%) | 5 (Herbicidal ratio of 90% or more (almost completely withered)) |  |  | 
5 | CON=C(CC1CC(OC(=O)COc2ccccc2)=C(c2c(C)cc(C)cc2C)C1=O)C1CC1 (stereo not drawn) [1-063] | 2 (Herbicidal ratio of 20% or higher and lower than 40%) | 2 (Herbicidal ratio of 20% or higher and lower than 40%) | 0 (Herbicidal ratio of 5% or lower (almost no effect)) | 5 (Herbicidal ratio of 90% or more (almost completely withered)) | 5 (Herbicidal ratio of 90% or more (almost completely withered)) | 4 (Herbicidal ratio of 70% or higher and lower than 90%) | 2 (Herbicidal ratio of 20% or higher and lower than 40%) | 5 (Herbicidal ratio of 90% or more (almost completely withered)) | 0 (Herbicidal ratio of 5% or lower (almost no effect)) | 3 (Herbicidal ratio of 40% or higher and lower than 70%) | 5 (Herbicidal ratio of 90% or more (almost completely withered)) |  |  | 
6 | CON=C(C)CC1CC(OC(=O)COc2ccc(Cl)cc2Cl)=C(c2c(C)cc(C)cc2C)C1=O (stereo not drawn) [1-075] |  | 5 (Herbicidal ratio of 90% or more (almost completely withered)) |  | 5 (Herbicidal ratio of 90% or more (almost completely withered)) | 5 (Herbicidal ratio of 90% or more (almost completely withered)) | 5 (Herbicidal ratio of 90% or more (almost completely withered)) | 4 (Herbicidal ratio of 70% or higher and lower than 90%) |  | 0 (Herbicidal ratio of 5% or lower (almost no effect)) |  |  | 4 (Herbicidal ratio of 70% or higher and lower than 90%) | 5 (Herbicidal ratio of 90% or more (almost completely withered)) | 5 (Herbicidal ratio of 90% or more (almost completely withered))
